[invAb] = inverted abasic unit; d = 2'-deoxy (DNA); m = 2'-O-methyl; r = 2'-OH (RNA); f = 2'-fluoro
Columns and labels:
STAT1 human mRNA = assay: Initial screen of siNAs: STAT1 mRNA knock-down in A549 cells (96-well transfection, Taqman RT-PCR); format: cell-based; details: 10 nM siNA, 24 hrs, normalized against GAPDH, average of 2 experiments
Procedure: A549 (human; ATCC cat# CCL-185): Cells were cultured at 37° C. in the presence of 5% CO2 and grown in Ham's F12K medium with 2 mM L-glutamine adjusted to contain 1.5 g/L sodium bicarbonate and supplemented with fetal bovine serum at a final concentration of 10% and 100 μg/mL of streptomycin and 100 U/mL penicillin.
(§1) Cells were plated in all wells of a tissue-culture treated, 96-well plate at a final count of 5000 cells/well in 100 μL of the appropriate culture media. The cells were cultured for 24 hours after plating at 37° C. in the presence of 5% CO2.
(§2) After 24 hours, complexes containing siNA and RNAiMax were created as follows: A solution of RNAiMax diluted 33-fold in OPTI-MEM was prepared. In parallel, solutions of the siNAs for testing were prepared to a final concentration of 120 nM in OPTI-MEM. After incubation of RNAiMax/OPTI-MEM solution at room temperature for 5 min, an equal volume of the siNA solution and the RNAiMax solution were added together for each of the siNAs.
(§3) This solution was incubated at room temperature for 20 minutes. After incubation, 20 uL of the solution was added to each of the relevant wells. The final concentration of siNA in each well was 10 nM and the final volume of RNAiMax in each well was 0.3 ul.
(§4) The time of incubation with the RNAiMax-siNA complexes was 24 hours and there was no change in media between transfection and harvesting, unless otherwise indicated.
(§5) RNA was extracted from a 96-well plate using the TaqMan® Gene Expression Cells-to-CT™ Kit (Cat# 4399002) with a modified protocol. Briefly, a 60 uL (1 plate) or 110 uL (2 plates) of the Lysis Solution with DNase I was dispensed into each well of the Lysis Buffer Plate (twin.tec full skirt plate). The lysis buffer and stop plates were stored at 4° C. until the cells were washed.
(§6) The culture medium was aspirated and discarded from the wells of the culture plate. 50 uL of chilled DPBS was added to each well, then aspirated and discarded. The lysis was performed automatically using a BioMek FX instrument and method. After the Biomek method was completed, the lysis plate was incubated for 2 min at room temperature. The lysis plate can be stored for 2 hours at 4° C., or at −20° C. or −80° C. for two months.
(§7) Each well of the reverse transcription plate required 10 uL of 2× reverse transcriptase Buffer, 1 uL of 20× reverse transcription enzyme and 2 uL of nuclease-free water. The reverse transcription master mix was prepared by mixing 2× reverse transcription buffer, 20× reverse transcription enzyme mix, and nuclease-free water. 13 uL of the reverse transcription master mix was dispensed into each well of the reverse transcription plate (semi-skirted). A separate reverse transcription plate was prepared for each cell plate. The plate was loaded onto a Biomek NX or Biomek FX Dual-96 and the Biomek method was run. The program is programmed to automatically added 7 uL of lysate from the cell lysis procedure described above into each well of the reverse transcription plate. The plate is sealed and spun on a centrifuge (1000 rpm for 30 seconds) to settle the contents to the bottom of the reverse transcription plate. The plate is placed in a thermocycler at 37° C. for 60 min, 95° C. for 5 min, and 4° C. until the plate is removed from the thermocycler. Upon removal, if not used immediately, the plate was frozen at −20° C.
(§8) A series of probes and primers were used to detect the various mRNA transcripts of the genes of β-Actin (human cell line only), and of STAT1 and GAPDH in mouse and human cell lines. All Taqman probes and primers for the experiments here-in described were supplied as pre-validated sets by Applied Biosystems, Inc. (see Table 2).
The assays were performed on an ABI 7900 instrument, according to the manufacturer's instructions.
Within each experiment, the baseline was set in the exponential phase of the amplification curve, and based on the intersection point of the baselines with the amplification curve, a Ct value was assigned by the instrument. […]

STAT1 mouse mRNA = assay: Initial screen of siNAs: STAT1 mRNA knock-down in NIH 3T3 cells (96-well transfection, Taqman RT-PCR); format: cell-based; details: 10 nM siNA, 24 hrs, normalized against GAPDH, average of 2 experiments
Procedure: NIH 3T3 (mouse; ATCC cat# CRL-1658): Cells were cultured at 37° C. in the presence of 5% CO2 and grown in Dulbecco's modified Eagle's medium (DMEM) with 4 mM L-glutamine adjusted to contain 1.5 g/L sodium bicarbonate and 4.5 g/L glucose and supplemented with fetal bovine serum at a final concentration of 10%, 100 μg/mL of streptomycin, and 100 U/mL penicillin.
as §1, §2, §3, §4, §5, §6, §7, §8
The assays were performed on an ABI 7900 instrument, according to the manufacturer's instructions. […]

Substance: 25346-DC: STAT1 siNA duplex, human target site 837; modified strands SEQ ID NO: 29 and 30 (chain 1 CCUGGAAGAUUUACAAGAUTT; chain 2 AUCUUGUAAAUCUUCCAGGUU; chain 1: DNA at AGT, 2'-fluoro at CU, [invAb] at 5' end, 3' end, backbone not given here; chain 2: sugars from the 5' end rrrffmfmmmffffffmmmmm, backbone not given here)
- % KD Human (STAT1 human mRNA): 62%
- % KD Mouse (STAT1 mouse mRNA): 31%

Substance: 25347-DC: STAT1 siNA duplex, human target site 2318; modified strands SEQ ID NO: 31 and 32 (chain 1 CUGAGAAUAUUCCUGAGAATT; chain 2 UUCUCAGGAAUAUUCUCAGUU; chain 1: DNA at AGT, 2'-fluoro at CU, [invAb] at 5' end, 3' end, backbone not given here; chain 2: sugars from the 5' end rrrffmmmmmfmfffffmmmm, backbone not given here)
- % KD Human (STAT1 human mRNA): 93%
- % KD Mouse (STAT1 mouse mRNA): 57%

Substance: 25348-DC: STAT1 siNA duplex, human target site 746; modified strands SEQ ID NO: 33 and 34 (chain 1 GCACAGUGAUGUUAGACAATT; chain 2 UUGUCUAACAUCACUGUGCUU; chain 1: DNA at AGT, 2'-fluoro at CU, [invAb] at 5' end, 3' end, backbone not given here; chain 2: sugars from the 5' end rrrfffmmfmffmffmfmfmm, backbone not given here)
- % KD Human (STAT1 human mRNA): 51%
- % KD Mouse (STAT1 mouse mRNA): 37%

Substance: 25349-DC: STAT1 siNA duplex, human target site 185; modified strands SEQ ID NO: 35 and 36 (chain 1 CCUGCGCGCAGAAAAGUUUTT; chain 2 AAACUUUUCUGCGCGCAGGUU; chain 1: DNA at AGT, 2'-fluoro at CU, [invAb] at 5' end, 3' end, backbone not given here; chain 2: sugars from the 5' end rrrfffffffmfmfmfmmmmm, backbone not given here)
- % KD Human (STAT1 human mRNA): 91%
- % KD Mouse (STAT1 mouse mRNA): 33%

Substance: 25350-DC: STAT1 siNA duplex, human target site 190; modified strands SEQ ID NO: 37 and 38 (chain 1 GCGCAGAAAAGUUUCAUUUTT; chain 2 AAAUGAAACUUUUCUGCGCUU; chain 1: DNA at AGT, 2'-fluoro at CU, [invAb] at 5' end, 3' end, backbone not given here; chain 2: sugars from the 5' end rrrfmmmmfffffffmfmfmm, backbone not given here)
- % KD Human (STAT1 human mRNA): 82%
- % KD Mouse (STAT1 mouse mRNA): 31%

Substance: 25352-DC: STAT1 siNA duplex, human target site 540; modified strands SEQ ID NO: 41 and 42 (chain 1 GCUGGAUGAUCAAUAUAGUTT; chain 2 ACUAUAUUGAUCAUCCAGCUU; chain 1: DNA at AGT, 2'-fluoro at CU, [invAb] at 5' end, 3' end, backbone not given here; chain 2: sugars from the 5' end rrrmfmffmmffmfffmmfmm, backbone not given here)
- % KD Human (STAT1 human mRNA): 91%
- % KD Mouse (STAT1 mouse mRNA): 34%

Substance: 25353-DC: STAT1 siNA duplex, human target site 2253; modified strands SEQ ID NO: 43 and 44 (chain 1 CACGAAGAAAGAACUUUCUTT; chain 2 AGAAAGUUCUUUCUUCGUGUU; chain 1: DNA at AGT, 2'-fluoro at CU, [invAb] at 5' end, 3' end, backbone not given here; chain 2: sugars from the 5' end rrrmmmffffffffffmfmmm, backbone not given here)
- % KD Human (STAT1 human mRNA): 86%
- % KD Mouse (STAT1 mouse mRNA): 79%

Substance: 25354-DC: STAT1 siNA duplex, human target site 678; modified strands SEQ ID NO: 45 and 46 (chain 1 GAAGGAAGAAAGGAAAAUUTT; chain 2 AAUUUUCCUUUCUUCCUUCUU; chain 1: sugars from the 5' end d17 f2 d2, [invAb] at 5' end, 3' end, backbone not given here; chain 2: sugars from the 5' end r3 f16 m2, backbone not given here)
- % KD Human (STAT1 human mRNA): 91%
- % KD Mouse (STAT1 mouse mRNA): 80%

Substance: 25355-DC: STAT1 siNA duplex, human target site 1126; modified strands SEQ ID NO: 47 and 48 (chain 1 CUGCAGAACUGGUUCACUATT; chain 2 UAGUGAACCAGUUCUGCAGUU; chain 1: DNA at AGT, 2'-fluoro at CU, [invAb] at 5' end, 3' end, backbone not given here; chain 2: sugars from the 5' end rrrfmmmffmmffffmfmmmm, backbone not given here)
- % KD Human (STAT1 human mRNA): 90%
- % KD Mouse (STAT1 mouse mRNA): 35%

Substance: 25356-DC: STAT1 siNA duplex, human target site 1115; modified strands SEQ ID NO: 49 and 50 (chain 1 GCUUGGAUCAGCUGCAGAATT; chain 2 UUCUGCAGCUGAUCCAAGCUU; chain 1: DNA at AGT, 2'-fluoro at CU, [invAb] at 5' end, 3' end, backbone not given here; chain 2: sugars from the 5' end rrrfmfmmffmmfffmmmfmm, backbone not given here)
- % KD Human (STAT1 human mRNA): 43%
- % KD Mouse (STAT1 mouse mRNA): 35%

Substance: 25357-DC: STAT1 siNA duplex, human target site 2285; modified strands SEQ ID NO: 51 and 52 (chain 1 CUGACAUCAUUCGCAAUUATT; chain 2 UAAUUGCGAAUGAUGUCAGUU; chain 1: DNA at AGT, 2'-fluoro at CU, [invAb] at 5' end, 3' end, backbone not given here; chain 2: sugars from the 5' end rrrffmfmmmfmmfmffmmmm, backbone not given here)
- % KD Human (STAT1 human mRNA): 93%
- % KD Mouse (STAT1 mouse mRNA): 29%

Substance: 25358-DC: STAT1 siNA duplex, human target site 1020; modified strands SEQ ID NO: 53 and 54 (chain 1 CACUGAACUUACCCAGAAUTT; chain 2 AUUCUGGGUAAGUUCAGUGUU; chain 1: DNA at AGT, 2'-fluoro at CU, [invAb] at 5' end, 3' end, backbone not given here; chain 2: sugars from the 5' end rrrffmmmfmmmfffmmfmmm, backbone not given here)
- % KD Human (STAT1 human mRNA): 79%
- % KD Mouse (STAT1 mouse mRNA): 17%

Substance: 25359-DC: STAT1 siNA duplex, human target site 268; modified strands SEQ ID NO: 55 and 56 (chain 1 CGACAGUCUUGGCACCUAATT; chain 2 UUAGGUGCCAAGACUGUCGUU; chain 1: DNA at AGT, 2'-fluoro at CU, [invAb] at 5' end, 3' end, backbone not given here; chain 2: sugars from the 5' end rrrmmfmffmmmmffmffmmm, backbone not given here)
- % KD Human (STAT1 human mRNA): 88%
- % KD Mouse (STAT1 mouse mRNA): 47%
